Assay results: patent EP0437336B1, “Biophosphoryl hydrazines and their use as pesticides” (priority 1990, dated 1991)
≈ marks a conversion by molar mass, not a printed value. Like-named read-outs stand apart in the source and are kept apart here.

Tests used:
[1] = test system: Southern Armyworm; assay: Biological Method D: Foliar Insecticidal Activity Test, Southern Armyworm test; format: in vivo, Spodoptera eridania; parameters: key: I = inactive at concentration listed
[2] = test system: Boll Weevil; assay: Biological Method D: Foliar Insecticidal Activity Test, boll weevil test; format: in vivo, Anthonomous grandis; parameters: key: I = inactive at concentration listed
[3] = test system: Mexican Bean Beetle; assay: Biological Method D: Foliar Insecticidal Activity Test, Mexican Bean Beetle test; format: in vivo, Epilachna varivestis; settings: Epilachna varivestis, Method D foliar test, Mexican Bean Beetle
[4] = test system: southern corn rootworm, Diabrotica undecimpunctata howardi; assay: Biological Method A: Corn Rootworm Screening Test (treated non-aggressive soil); settings: soil concentration giving 90% mortality, 10 days at 27°C
[5] = test system: southern corn rootworm, Diabrotica undecimpunctata howardi; settings: for pest or weed control at 560 g/ha: Diabrotica undecimpunctata, in Zea mays, foliar, 336 h, read-out: foliar systemic nonagressive Method B crw % control at 0.56 kg/ha (0.5 lb/acre); for foliar systemic nonagressive Method B crw % control at 0.56 kg/ha (0.5 lb/acre): percent control relative to infested check, from root damage ratings, 14 days post-spraying
[6] = test system: Two-Spotted Spider Mite; assay: Biological Method D: Foliar Insecticidal Activity Test, mite test; format: in vivo, Tetranychus urticae; parameters: key to LC50 TSM: I = inactive at concentration listed; settings: Method D foliar test, Two-Spotted Spider Mite; for LC50: Tetranychus urticae, read-out: LC50 TSM
[7] = test system: Green Peach Aphid; assay: Biological Method D: Foliar Insecticidal Activity Test, aphid test; format: in vivo, Myzus persicae; settings: Myzus persicae; Method D foliar test; Green Peach Aphid
Protocol: (§1) Biological Method D: Foliar Insecticidal Activity Test
(§2) In evaluating the foliar insecticidal activity of the compounds of this invention against insects and mites, the following test procedures were employed.
(§3) Not all compounds were tested at each of the several concentrations stated above. Test concentrations of a compound were selected as those most likely to differentiate dose response of a particular compound toward a particular test insect.
(§4) Initial evaluations were made on one or more of the following pests:
For the aphid test, infested broccoli (Brassica oleracea italica var. DiCicco) leaves containing about 50 aphids were placed in a Petri dish lid on a moistened piece of cotton. The leaves were then sprayed to thorough wetness with the test solution using a rotating turntable, held for twenty-four hours and then the percentage killed was determined.
(§5) The mortalities obtained in this manner were plotted on logarithmic probability paper.
(§6) The rotating turntable consists of a fixed, continuously operating spray nozzle under which targets are rotated at a fixed speed and distance. If the target is a Petri dish (such as for the bean beetle, armyworm, mite, or aphid tests), the distance from the nozzle is 38.1 cm (15 inches). If the target is a Mason jar (such as for the boll weevil test), the distance from the nozzle is 17.8 cm (7 inches). The nozzle is located 8 inches from the rotating shaft. The targets on individual platforms revolve around the shaft at 1 revolution per 20 seconds but only a brief portion of this time occurs in the spray path. Targets pass only once under the nozzle and then are removed to drying hoods.
(§7) The nozzle used is a 1/4 JCO Spraying Systems (Wheaton, Illinois) air atomizing nozzle equipped with a No. 2850 fluid cap and a No. 70 air cap. At the 68.95 x 10³ Pa gauge (10 psig) air pressure used and with liquid siphon feed, 1.89 ℓ/hr [0.5 GPH (gallons per hour)] are delivered in a round spray pattern with a 21 degree spray angle. Targets are misted with spray droplets to the point that the droplets coalesce to form a uniform thin film insufficient to drown test organisms.

[8] = test system: Boll Weevil; assay: Biological Method D: Foliar Insecticidal Activity Test, boll weevil test; format: in vivo, Anthonomous grandis; settings: Method D foliar test, Boll Weevil
[9] = test system: southern corn rootworm, Diabrotica undecimpunctata howardi; settings: at-planting soil application
[10] = test system: Green Peach Aphid; assay: Biological Method D: Foliar Insecticidal Activity Test, aphid test; format: in vivo, Myzus persicae; parameters: key: I = inactive at concentration listed
[11] = test system: Southern Armyworm; assay: Biological Method D: Foliar Insecticidal Activity Test, Southern Armyworm test; format: in vivo, Spodoptera eridania; settings: Spodoptera eridania, Method D foliar test, Southern Armyworm
Protocol: as §1, §2, §3, §4
For the Mexican Bean Beetle and Southern armyworm tests, individual lima bean (Phaseolus limeniss var. Woods' Prolific) leaves were placed on moistened pieces of filter paper in Petri dishes. The leaves were then sprayed with the test solution using a rotating turntable and allowed to dry. The dishes were then infested with 10 third instar larvae of either the Mexican Been Beetle or the Southern Armyworm. The dishes were then covered. Percent mortality was determined for each species and spray concentration at 48 and 96 hours after treatment.
as §5, §6, §7

[12] = 48 hrs, read-out: LC50 BB 48 hrs.
[13] = 96 hrs, read-out: LC50 BB 96 hrs
[14] = 96 hrs, read-out: LC50 AW 96 hrs

SMILES | LC50 AW 48 hrs [1] | LC50 AW 96 hrs [1] | LC50 BW 48 hrs [2] | LC50 BW 96 hrs [2] | LC50 [3, 12] | LC50 [3, 13] | primary nonagressive Method A crw LC90 [4] | pest or weed control at 560 g/ha [5] | LC50 [6] | LC50 [7] | LC50 BW 48 hrs ([8]; 48 hrs) | LC50 BW 96 hrs [8] | secondary aggressive Method C crw LC50 ([9]; rated 17 days post-infestation) | secondary aggressive Method C crw LC50 ([9]; value in brackets) | LC50 GPA [10] | LC50 ([11]; 48 hrs, read-out: LC50 AW 48 hrs) | LC50 [11, 14] | foliar systemic nonagressive Method B crw % control at 0.56 kg/ha (0.5 lb/acre) [5] | LC50 TSM [6]
CCCOP(=S)(NNP(=S)(OCC)SC(C)C)OCCC (centres unmarked) [Compound 23] | I | I | I | I | 62 µg/mL (≈ 157 µM) | 78 µg/mL (≈ 198 µM) | 0.55 ppm | 16% | 150 µg/mL (≈ 380 µM) | 150 µg/mL (≈ 380 µM) |  |  |  |  |  |  |  |  | 
CCOP(=S)(NNP(=S)(OCC)OCC(C)(C)C)OCC (centres unmarked) [Compound 38, N-(O,O-diethylthiophosphoryl) N′-(O-ethyl O-neopentylthiophosphoryl) hydrazine] | I | I |  |  | 60 µg/mL (≈ 159 µM) | 60 µg/mL (≈ 159 µM) | 0.07 ppm | 46% | 150 µg/mL (≈ 396 µM) |  | 740 ppm | 740 ppm | 0.5 kg/ha | 0.45 lb/acre | I |  |  |  | 
CCCOP(=S)(NNP(=S)(OCC)OCCC)OCC (centres unmarked) [Compound 29, reference compound] |  |  | I | I | 150 µg/mL (≈ 412 µM) | 150 µg/mL (≈ 412 µM) | 0.09 ppm |  | 150 µg/mL (≈ 412 µM) |  |  |  | ~3.03 kg/ha | ~2.7 lb/acre | I | 420 µg/mL (≈ 1150 µM) | 180 µg/mL (≈ 494 µM) | 38% | 
CCOP(=S)(NNP(=S)(OCC)SC(C)C)OCC (centres unmarked) [Compound 20] | I | I | I | I | 110 µg/mL (≈ 300 µM) | 52 µg/mL (≈ 142 µM) | 0.40 ppm |  |  |  |  |  | 1.01 kg/ha | 0.90 lb/acre | I |  |  | 50% | I
CCOP(=S)(NNP(=S)(OCC)OC(C)CC)OCC (centres unmarked) [Compound 8] | I | I | I |  | 500 µg/mL (≈ 1370 µM) | 84 µg/mL (≈ 231 µM) | <0.1 ppm |  | 335 µg/mL (≈ 919 µM) |  |  | 740 ppm | 0.81 kg/ha | 0.72 lb/acre | I |  |  | 53% | 
CCOP(=O)(NNP(=S)(OCC)OCC)OCC [Compound 2, reference compound] | I | I | I | I |  |  | 0.87 ppm |  | 540 µg/mL (≈ 1690 µM) | 150 µg/mL (≈ 468 µM) |  |  |  |  |  |  |  | 0% | 
CCCCOP(=S)(NNP(=S)(OCCC)OCCC)OCC (centres unmarked) [Compound 17] | I | I | I | I | 150 µg/mL (≈ 382 µM) | 62 µg/mL (≈ 158 µM) | 1.1 ppm | 38% |  |  |  |  | 1.02 kg/ha | 0.91 lb/acre | I |  |  |  | I
CCOP(=S)(NNP(=S)(OCC)OCC(C)C)OCC (centres unmarked) [Compound 11, N-(O,O-diethylthiophosphoryl) N′-(O-ethyl O-isobutylthiophosphoryl) hydrazine] | I | I | I |  | 150 µg/mL (≈ 412 µM) | 60 µg/mL (≈ 165 µM) | <0.1 ppm |  |  |  |  | 740 ppm | 0.36 kg/ha | 0.32 lb/acre | I |  |  | 53% | I
CCOP(=S)(NNP(=S)(OC(C)C)OC(C)C)OCC [Compound 9, reference compound] | I | I | I | I | 300 µg/mL (≈ 823 µM) | 150 µg/mL (≈ 412 µM) | 0.41 ppm |  | 76 µg/mL (≈ 209 µM) |  |  |  | 1.1 kg/ha | 0.98 lb/acre | I |  |  | 64% | 
CCCOP(=S)(NNP(=S)(OCC)OCC(C)C)OCCC (centres unmarked) [Compound 18, N-(O,O-dipropylthiophosphoryl) N′-(O-ethyl O-isobutylthiophosphoryl) hydrazine] | I | I | I | I | 150 µg/mL (≈ 382 µM) | 78 µg/mL (≈ 199 µM) | <0.1 ppm | 61% |  |  |  |  | 0.36 kg/ha | 0.32 lb/acre | I |  |  |  | I
CCOP(=S)(NNP(=S)(OCC)OCC)OCC [Compound 1, reference compound] | I |  | I | I |  |  | 0.5 ppm |  |  | 500 µg/mL (≈ 1490 µM) |  |  |  |  |  |  | 500 µg/mL (≈ 1490 µM) | 16% | I
CCCOP(=S)(NNP(=S)(OCCC)OCCC)OCCC [Compound 14, reference compound] | I | I | I | I | 500 µg/mL (≈ 1270 µM) | 52 µg/mL (≈ 132 µM) | 0.39 ppm | 46% |  |  |  |  | 1.12 kg/ha | 1.0 lb/acre | I |  |  |  | I
CCCOP(=S)(NNP(=S)(OCC)OC(C)CC)OCCC (centres unmarked) [Compound 19, N-(O,O-dipropylthiophosphoryl) N′-(O-ethyl O-secbutylthiophosphoryl) hydrazine] | I | I | I | I | 78 µg/mL (≈ 199 µM) | 62 µg/mL (≈ 158 µM) | <0.1 ppm | 54% |  |  |  |  | 0.28 kg/ha | 0.25 lb/acre | I |  |  |  | I
CCCOP(=S)(NNP(=S)(OC(C)C)OC(C)C)OCCC [Compound 16, reference compound] | I | I | I | I | 150 µg/mL (≈ 382 µM) | 62 µg/mL (≈ 158 µM) | 0.95 ppm | 46% |  |  |  |  | 1.03 kg/ha | 0.92 lb/acre | I |  |  |  | I
